Data on 16 compounds can be found in patent US6451814B1, “Heterocyclic β-3 adrenergic receptor agonists” (Wyeth, priority 2000, dated 2002).

For orientation: EC50 means the concentration that produces a half-maximal response. For orientation: melting point means the temperature of the solid-liquid transition.

Data set [1] deals with T1, human β3-adrenergic receptor (Homo sapiens, UniProt P13945).
T1 construct: Full length β3 AR clones (402 amino acids) containing the last 6 amino acids of hβ3—AR are prepared; expressed in transfected cells; host or cells: CHO cells
Put plainly: cAMP response (SPA kit) in CHO cells transfected with human β3 adrenergic receptor. The conditions noted are these: for EC50: CHO cells expressing human β3-AR, 10^-9 M to 10^-5 M, 30 min at 37° C., cAMP by SPA, read-out: EC50(β3); for IA(β3): maximal response of compound compared to maximal response of isoproterenol at 10^-5 M, CHO cells, human β3-AR. Format: cell-based.

Where “and” joins values, the source holds several entries; their conditions need not be identical. Equal entries are not always repeated.

T1 sequence (P13945 whole entry): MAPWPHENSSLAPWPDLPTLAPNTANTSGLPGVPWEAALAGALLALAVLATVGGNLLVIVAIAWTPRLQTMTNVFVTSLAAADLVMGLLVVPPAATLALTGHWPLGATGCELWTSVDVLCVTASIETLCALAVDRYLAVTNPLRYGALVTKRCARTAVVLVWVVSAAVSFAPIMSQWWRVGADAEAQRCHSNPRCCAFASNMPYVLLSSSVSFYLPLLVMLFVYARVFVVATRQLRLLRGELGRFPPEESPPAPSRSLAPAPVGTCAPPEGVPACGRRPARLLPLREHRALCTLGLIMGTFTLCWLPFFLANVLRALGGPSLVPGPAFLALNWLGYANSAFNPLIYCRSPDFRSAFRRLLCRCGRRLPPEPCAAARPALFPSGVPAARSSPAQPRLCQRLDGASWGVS

`COc1ccc(C2CCN(C(=O)N3CCC(Nc4ccc(CCNC[C@H](O)COc5ccc(O)cc5)cc4)CC3)CC2)cc1OC1CCCC1` [Example 17, [4-(3-Cyclopentyloxy-4-methoxy-phenyl)-piperidin-1-yl]-[4-(4-{2-[(2S)-2-hydroxy-3-(4-hydroxy-phenoxy)-propylamino]-ethyl}-phenylamino)-piperidin-1-yl]-methanone] showed a melting point of 92 to 95 °C. Further, in data set [1], the EC50 was determined as 0.015 µM and the “IA(β3)” value stood at 0.63.
The matching figures for `CS(=O)(=O)Nc1cc([C@@H](O)CNCCc2ccc(NC3CCN(c4ccc(S(=O)(=O)N5CCCCC5)cc4)CC3)cc2)ccc1O` [Example 119]: 118 to 120 °C, 0.008 µM and 1.03.
Compound `CCc1ccc(CCNC(=O)N2CCC(Nc3ccc(CCNC[C@H](O)COc4ccc(O)cc4)cc3)CC2)cc1` [Example 30, 4-(4-{2-[(2S)-2-Hydroxy-3-(4-hydroxy-phenoxy)-propylamino]-ethyl}-phenylamino)-piperidine-1-carboxylic Acid [2-(4-ethyl-phenyl)-ethyl]-amide] displayed a melting point of 79 to 81 °C. Further, in data set [1], the EC50 is 0.034 µM and 0.049 µM and 0.022 µM and 0.098 µM; the “IA(β3)” value is 1 and 0.87 and 0.84 and 0.65.
Compound `CCCCCCCCNC(=O)N1CCC(Nc2ccc(CCNC[C@H](O)c3ccc(O)c(NS(C)(=O)=O)c3)cc2)CC1` [Example 59, 4-(4-{2-[(2R)-2-Hydroxy-2-(4-hydroxy-3-methanesulfonylamino-phenyl)-ethylamino]-ethyl}-phenylamino)-piperidine-1-carboxylic Acidoctylamide] showed a melting point of 160 to 162 °C. Further, in data set [1], the EC50 amounted to 0.003 µM and the “IA(β3)” value was 1.
For `O=C(NCc1ccc(F)cc1)N1CCC(Nc2ccc(OCCNC[C@H](O)COc3ccc(O)cc3)cc2)CC1` [Example 39, 4-(4-{2-[(2S)-2-Hydroxy-3-(4-hydroxy-phenoxy)-propylamino]-ethoxy}-phenylamino)-piperidine-1-carboxylic Acid 4-fluoro-benzylamide], in that order: 73 to 77 °C, 0.036 µM and 0.9.
For `CC(C)CCNC(=O)N1CCC(Nc2ccc(CCNC[C@H](O)COc3ccc(O)cc3)cc2)CC1` [Example 35, 4-(4-{2-[(2S)-2-Hydroxy-3-(4-hydroxy-phenoxy)-propylamino]-ethyl}-phenylamino)-piperidine-1-carboxylic Acid (3-methyl-butyl)-amide], in that order: 72 to 77 °C, 0.133 µM and 0.96.
The matching figures for `O=C(NCCc1ccc(F)cc1)N1CCC(Nc2ccc(CCNC[C@H](O)COc3ccc(O)cc3)cc2)CC1` [Example 15, 4-(4-{2-[(2S)-2-Hydroxy-3-(4-hydroxy-phenoxy)-propylamino]-ethyl}-phenylamino)-piperidine-1-carboxylic Acid [2-(4-fluoro-phenyl)-ethyl]-amide]: 73 to 77 °C, 0.034 µM and 0.91.
For the compound `Cc1ccsc1C(=O)N1CCC(Sc2ccc(CCNC[C@H](O)COc3ccc(O)cc3)cc2)CC1` [Example 106, [4-(4-{2-[(2S)-2-Hydroxy-3-(4-hydroxy-phenoxy)-propylamino]-ethyl}-phenylsulfanyl)-piperidin-1-yl]-(3-methyl-thiophen-2-yl)-methanone], the melting point fell in the range of 135 to 144 °C. In data set [1], the concentration giving a half-maximal response (EC50) was found to be 0.127 µM and the “IA(β3)” value is recorded as 0.79.
For `O=C(NCCCC1CCCCC1)N1CCC(Nc2ccc(CCNC[C@H](O)COc3ccc(O)cc3)cc2)CC1` [Example 68, 4-(4-{2-[(2S)-2-Hydroxy-3-(4-hydroxy-phenoxy)-propylamino]-ethyl}-phenylamino)-piperidine-1-carboxylic Acid (3-cyclohexyl-propyl)-amide], in that order: 69 to 71 °C, 0.039 µM and 1.1.
The matching figures for `CCCCCC(=O)N1CCC(Nc2ccc(CCNC[C@H](O)COc3ccc(O)cc3)cc2)CC1` [Example 103, 1-[4-(4-{2-[(2S)-2-Hydroxy-3-(4-hydroxy-phenoxy)-propylamino]-ethyl}-phenylamino)-piperidin-1-yl]-hexan-1-one]: 57 to 59 °C, 0.074 µM and 0.9.
The matching figures for `O=C(NCc1ccc(-n2cccn2)cc1C(F)(F)F)N1CCC(Nc2ccc(CCNC[C@H](O)COc3ccc(O)cc3)cc2)CC1` [Example 34, 4-(4-{2-[(2S)-2-Hydroxy-3-(4-hydroxy-phenoxy)-propylamino]-ethyl}-phenylamino)-piperidine-1-carboxylic Acid 4-pyrazol-1-yl-2-trifluoromethyl-benzylamide]: 96 to 100 °C, 0.062 µM and 0.83.
For the compound `O=C(NCCCc1cccs1)N1CCC(Nc2ccc(CCNC[C@H](O)COc3ccc(O)cc3)cc2)CC1` [Example 23, 4-(4-{2-[(2S)-2-Hydroxy-3-(4-hydroxy-phenoxy)-propylamino]-ethyl}-phenylamino)-piperidine-1-carboxylic Acid (3-thiophen-2-yl-propyl)-amide], the melting point is 73 to 77 °C. In data set [1], the EC50 worked out at 0.01 µM and the “IA(β3)” value came to 0.88.
The matching figures for `O=C(c1cc2cccc([N+](=O)[O-])c2[nH]1)N1CCC(Nc2ccc(CCNC[C@H](O)COc3ccc(O)cc3)cc2)CC1` [Example 95, [4-(4-{2-[(2S)-2-Hydroxy-3-(4-hydroxy-phenoxy)-propylamino]-ethyl}-phenylamino)-piperidin-1-yl]-(7-nitro-1H-indol-2-yl)-methanone]: 100 to 102 °C, 0.066 µM and 0.9.
For `CCCCCCCCS(=O)(=O)N1CCC(Nc2ccc(CCNC[C@H](O)COc3ccc(O)cc3)cc2)CC1` [Example 111], in that order: 64 to 68 °C, 0.125 µM and 0.78.
For `O=C([C@@H]1CCCN1S(=O)(=O)c1ccc(F)cc1)N1CCC(Nc2ccc(CCNC[C@H](O)COc3ccc(O)cc3)cc2)CC1` [Example 104, [(2S)-1-(4-Fluoro-benzenesulfonyl)-pyrrolidin-2-yl]-[4-(4-{2-[(2S)-2-hydroxy-3-(4-hydroxy-phenoxy)-propylamino]-ethyl}-phenylamino)-piperidin-1-yl]-methanone], in that order: 87 to 89 °C, 0.085 µM and 0.97.
Compound `O=C(c1c[nH]c2ccccc12)N1CCC(Nc2ccc(CCNC[C@H](O)COc3ccc(O)cc3)cc2)CC1` [Example 99, [4-(4-{2-[(2S)-2-Hydroxy-3-(4-hydroxy-phenoxy)-propylamino]-ethyl}-phenylamino)-piperidin-1-yl]-(1H-indol-3-yl)-methanone] yielded a melting point of 90 to 92 °C. Moreover, in data set [1], the EC50 turned out to be 0.009 µM and the “IA(β3)” value is reported as 1.08.
